One may read the IC50 as the concentration that gives 50% inhibition.

Data set [1] addresses DR4Dw4 (DRA1*0101 DRB1*0401) (Homo sapiens, UniProt P01903+P01911, A100K/A169T/F76Y/I96L/K127E/L162R/M171V/N62H/P40V/Q125Y/R42H/S133A/S149N/S66Y/V115G/V209L/W38E). The data set can be described thus: Competitive binding to MHC-II protein DR4Dw4. The method, boiled down:
(§1)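 Each MHC-II allele incubated with compound 16 hours at room temperature in duplicate; controls lacked compound, or both compound and MHC-II. Complexes captured 2 h at 4 °C, bound biotinylated peptide detected via europium-streptavidin and DELFIA enhancement, time-resolved fluorescence read at ex 340/em 613 (615) nm.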

The target of data set [2] is DR1 (DRA1*0101 DRB1*0101) (Homo sapiens, UniProt P01903+P01911, A100R/D57E/F55L/F60I/F76Y/I96L/L162R/M171V/P40L/Q125E/R42F/V115G/Y59C). Description: Competitive binding to MHC-II protein DR1. The note with it: Protein binding IC50 (nM) 0101, 0101. The method, boiled down:
as §1

For data set [3], the target named is DR4Dw14 (DRA1*0101 DRB1*0404) (Homo sapiens, UniProt P01903+P01911, A100R/A169T/F76Y/I96L/K127E/L162R/M171V/N62H/P40V/Q125Y/R42H/S133A/S149N/S66Y/V209L/W38E). Description: Competitive binding to MHC-II protein DR4Dw14. The note with it: 0404; read-out: Protein binding IC50 (nM) 0404. The essentials:
as §1

Data set [4] concerns the target T1, Priess (DR4Dw4: DRA1*0101 DRB1*0401) cells (Homo sapiens, UniProt P01903+P01911, A100K/A169T/F76Y/I96L/K127E/L162R/M171V/N62H/P40V/Q125Y/R42H/S133A/S149N/S66Y/V115G/V209L/W38E).
T1 construct: MHC II Proteins Expressed on PRIESS and LG2 Cells; endogenous in cells; host or cells: Priess cells
Description: Competitive binding to MHC II proteins expressed on Priess cells. It counts as cell-based. How it is done:
(§2) For use in the binding assay the cells were re-suspended in medium containing 1% FCS at a density of 2.5×10^6 cells/ml.
(§3) The assay was performed in sterile 96 well polystyrene microtiter plates. A 10 fold dilution series of compounds (16 nM-1615 μM) in 1% FCS was prepared from 5 or 10 mM compound stock solutions in 10% DMSO/water. 50 μl of each compound dilution were added in duplicates to 50 μl of a 16 μM solution of indicator peptide in 1% FCS. Cell binding was initiated by adding 100 μl of 2.5×10^6 cells/ml 1% FCS to each well. Controls were included containing the DMSO concentration present in the solution with the highest compound concentration. The cells were incubated at 37° C., 6% CO2. After 4 hours the cells were washed with 200 μl PBS and lysed in 200 μl lysis buffer (50 mM sodium phosphate, 150 mM sodium chloride, 1% (w/v) NP-40, 25 mM iodoacetamide, 1 mM PMSF, 3.1% protease inhibitor cocktail: 0.32 g/l of Chymostatin, Antipain, Pepstatin A, Soybean trypsin inhibitor and Leupeptin each, pH 7.5) for 10 min.
(§4) After washing with PBS, 190 μl of cell lysate were transferred to the appropriate wells of the capture plate and incubated for 2 h at 4° C. The wells were washed six times with 200 μl/well cooled (4 to 8° C.) of 1×DELFIA wash (Wallac-ADL-GmbH, Freiburg), incubated with 100 μl of cooled Europium-streptavidin conjugate (Wallac-ADL-GmbH, Freiburg; diluted 1/1000 with DELFIA assay buffer) for 30 minutes at 4° C., again washed six times with cooled 1×DELFIA wash and, finally, incubated with 200 μl cooled DELFIA enhancement solution (Wallac-ADL-GmbH, Freiburg) for one hour at room temperature before reading the time-resolved europium fluorescence at λex Eu^3+: 340 nm and λem Eu^3+: 613 (615) nm (Wallac Victor^2 1420 Multilabel Counter, Wallac-ADL-GmbH, Freiburg).

Data set [5] has as its target T2, LG2 (DR1: DRA1*0101 DRB1*0101) cells (Homo sapiens, UniProt P01903+P01911, A100R/D57E/F55L/F60I/F76Y/I96L/L162R/M171V/P40L/Q125E/R42F/V115G/Y59C).
T2 construct: MHC II Proteins Expressed on PRIESS and LG2 Cells; endogenous in cells; host or cells: LG2 cells
The data set can be described thus: Competitive binding to MHC II proteins expressed on LG2 cells. It counts as cell-based. The note with it: Cell binding IC50 (uM) LG2 (0101), LG2 (0101). How it is done: as §2, §3, §4

Data set [6] can be described thus: Stability of compounds in rat blood plasma. It counts as in vitro ADME. The essentials: (§5)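 Compounds at 5 μM final in rat, mouse or human plasma, incubated at 37 °C and sampled at 0, 6 and 24 h. Proteins precipitated with acetonitrile and the supernatant dried and reconstituted in 50% acetonitrile/0.1% TFA. PBS controls run for unstable compounds.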
A short description of data set [7]: Stability of compounds in human blood plasma. It counts as in vitro ADME. The method, boiled down: as §5
For data set [8], the target named is Cathepsin D (EC 3.4.23.5 from bovine spleen) (Bos taurus, UniProt P80209). How it is done: The stability of the peptidomimetic compounds towards lysosomal degradation was examined by incubation with Cathepsin B1 (EC 3.4.22.1 from bovine spleen; Sigma-Aldrich, Taufkirchen; dissolved at 10000 U/l in ddH2O) and D (EC 3.4.23.5 from bovine spleen; Sigma-Aldrich, Taufkirchen; dissolved at 10000 U/l in ddH2O) for four hours at 37° C. using a compound concentration of 50 μM and an enzyme/substrate ratio of 0.4 U/μmol. The samples contained 25 ppm 4-isopropyl benzyl alcohol (IPBA; Sigma-Aldrich, Taufkirchen) as internal standard.
Assay buffer was prepared by adding 35 μl of a 1% IPBA in DMSO solution and 28 μl of a 10000 U/l Cathepsin B1 or Cathepsin D stock solution to 14 ml of 100 mM sodium acetate, 1 mM EDTA, 1 mM DTT, pH 5.00 or 100 mM sodium acetate, pH 4.50, respectively. 8.8 μl of a 5 mM (or 4.4 μl of a 10 mM) compound stock solution (in 10% DMSO/water) were placed into a 1.5 ml Eppendorf tube. The reaction was started by adding 875 μl fully supplemented assay buffer to each tube, whirlmixing and incubation at 37° C. At 0 and 4 hours 400 μl samples were taken and the enzyme was inactivated by addition of 40 μl […] TFA aq. The samples were kept frozen at −20° C. until analysis by RP-HPLC (200 μl injection volume; Nucleosil 100-5 C18, 12.5×4.6 cm; Gradient: 20-50% acetonitrile in 30 min).
Compounds co-eluting with the internal standard during RP-HPLC analysis were tested without the standard as Example 16.

In data set [9] the target is Cathepsin B1 (EC 3.4.22.1 from bovine spleen) (Bos taurus, UniProt P07688). The note with it: Cathepsin B, 4 h.
A short description of data set [10]: Stability of compounds in mouse blood plasma. It counts as in vitro ADME. The essentials: as §5
For data set [11], the system named is T-cell proliferation, DR14-LN.

Each structure is given as a SMILES string. “And” between values parts separate entries of the source, which are not always exact repeats. Identical values can stand only once. Numbered stars: 1 amine (or outer) side, 2 acyl side, 3 side chain; on linkers, the order of the positions; unused ones are H or OH. Square brackets hold non-standard residues; d marks the D form. Peptide text beside a SMILES is read from it. ξ: configuration not given here. Gly(1-amidinopiperidin-4-yl) = N=C(N)N1CCC([C@H](N)C(=O)O)CC1; X1 = CC(C)c1oc([C@H](CO)N[*:1])nc1C(=O)[*:2]; Pro(3R-Ph) = O=C(O)[C@H]1NCC[C@@H]1c1ccccc1; Met(O) = CS(=O)CC[C@H](N)C(=O)O; Tic = O=C(O)[C@@H]1Cc2ccccc2CN1; Cha = N[C@@H](CC1CCCCC1)C(=O)O; ξDisc = O=C(O)C1NCc2ccccc21

As for `CSCC[C@H](NC(=O)C1c2ccccc2CN1C(=O)[C@H](CCCNC(=N)N)NC(=O)[C@H](CC1CCCCC1)NC(C)=O)C(=O)N1CC[C@H](c2ccccc2)[C@H]1C(=O)N[C@@H](CO)c1nc(C(=O)N(C)C)c(C(C)C)o1` (stereo partly drawn) [Compound P40-1, Ac-Cha-Arg-Disc-Met-βPhPro-[S(oxaz)L]NMe2] (Ac-[Cha]R[ξDisc]M[Pro(3R-Ph)][X1]-NMe2), the IC50 in data set [1] is 0.27 µM; in data set [2] it was 140 nM; in data set [3], 98 nM; in [4] it was 3 µM; in [5], 8 µM. Moreover, the “Stability (Arbitrary units) Rat 6 h” value in [6] worked out at 111 Arbitrary units. Also, in data set [6], the “Stability (Arbitrary units) Rat 24 h” value is recorded as 71 Arbitrary units. For the same compound, the “Stability (Arbitrary units) Human 6 h” value in data set [7] is listed as 108 Arbitrary units. Further, the “Stability (Arbitrary units) Human 24 h” value in data set [7] is given as 103 Arbitrary units. Also, the “Stability (Arbitrary units) Cath D 4 h” value in [8] came out at 93 Arbitrary units. In [9], the “Stability (Arbitrary units) Cath B 4 h” value is 99 Arbitrary units.
On to `CC(=O)N[C@@H](CC1CCCCC1)C(=O)N[C@@H](CCCNC(=N)N)C(=O)N1Cc2ccccc2C[C@H]1C(=O)N[C@@H](CC[S+](C)[O-])C(=O)N1CC[C@H](c2ccccc2)[C@H]1C(=O)N[C@@H](CO)c1nc(C(=O)N(C)C)c(C(C)C)o1` (stereo partly drawn) [Compound P43, Ac-Cha-Arg-Tic-Met(O)-βPhPro-[S(oxaz)L]-NMe2] (Ac-[Cha]R[Tic][Met(O)][Pro(3R-Ph)][X1]-NMe2), for which the IC50 was 0.32 µM in [1]; 380 nM in data set [2]; 1700 nM in data set [3]; 3.1 µM in data set [4]; 13 µM in data set [5]. Besides, in data set [6], the “Stability (Arbitrary units) Rat 6 h” value worked out at 96 Arbitrary units. Also, the “Stability (Arbitrary units) Rat 24 h” value in data set [6] is recorded as 71 Arbitrary units. Besides, the “Stability (Arbitrary units) Mouse 6 h” value in data set [10] worked out at 96 Arbitrary units. The “Stability (Arbitrary units) Mouse 24 h” value in [10] was determined as 82 Arbitrary units. For the same compound, the “Stability (Arbitrary units) Human 6 h” value in data set [7] came to 134 Arbitrary units. Moreover, in data set [7], the “Stability (Arbitrary units) Human 24 h” value was determined as 131 Arbitrary units. In addition, the “Stability (Arbitrary units) Cath D 4 h” value in data set [8] was found to be 101 Arbitrary units. Also, the “Stability (Arbitrary units) Cath B 4 h” value in data set [9] is recorded as 96 Arbitrary units.
As to `CSCC[C@H](NC(=O)[C@@H]1Cc2ccccc2CN1C(=O)[C@@H](NC(=O)[C@H](CC1CCCCC1)NC(C)=O)C1CCN(C(=N)N)CC1)C(N)=O` [Compound P67, Ac-Cha-Gpg-Tic-Met-NH2] (Ac-[Cha][Gly(1-amidinopiperidin-4-yl)][Tic]M-NH2), the IC50 in data set [1] is 0.41 µM; in data set [2], 120 nM; in data set [3] it was 1060 nM and 1080 nM; in [4], 4.5 µM; in data set [5], 4.5 µM. In [6], the “Stability (Arbitrary units) Rat 6 h” value was 10 Arbitrary units. Also, the “Stability (Arbitrary units) Rat 24 h” value in [6] came to 34 Arbitrary units. Besides, the “Stability (Arbitrary units) Mouse 6 h” value in [10] is 71 Arbitrary units. Also, the “Stability (Arbitrary units) Mouse 24 h” value in data set [10] worked out at 16 Arbitrary units. In addition, in [7], the “Stability (Arbitrary units) Human 6 h” value came to 97 Arbitrary units. The “Stability (Arbitrary units) Human 24 h” value in data set [7] was 100 Arbitrary units. Besides, the “Stability (Arbitrary units) Cath D 4 h” value in data set [8] was 113 Arbitrary units. For the same compound, the “Stability (Arbitrary units) Cath B 4 h” value in data set [9] was determined as 58 Arbitrary units.
As for `CSCC[C@H](NC(=O)[C@@H]1Cc2ccccc2CN1C(=O)[C@@H](NC(=O)[C@H](CC1CCCCC1)NC(C)=O)C1CCN(C(=N)N)CC1)C(=O)N1CC[C@H](c2ccccc2)[C@H]1C(N)=O` [Compound P80, Ac-Cha-Gpg-Tic-Met-βPhProNH2] (Ac-[Cha][Gly(1-amidinopiperidin-4-yl)][Tic]M[Pro(3R-Ph)]-NH2), the 50% inhibitory concentration (IC50) in data set [1] stood at 0.67 µM; in [2], 550 nM; in data set [3] it was 470 nM; in [4], 2.7 µM; in [5], 2.7 µM; in data set [11] (read-out: Immunsupressive assays DR14-LN (IC50)), 94 µM. Moreover, the “Stability (Arbitrary units) Rat 6 h” value in [6] turned out to be 102 Arbitrary units. In addition, in data set [6], the “Stability (Arbitrary units) Rat 24 h” value is 39 Arbitrary units. Also, in [10], the “Stability (Arbitrary units) Mouse 6 h” value was 106 Arbitrary units. The “Stability (Arbitrary units) Mouse 24 h” value in [10] is recorded as 123 Arbitrary units. For the same compound, the “Stability (Arbitrary units) Human 6 h” value in data set [7] was determined as 139 Arbitrary units. Moreover, the “Stability (Arbitrary units) Human 24 h” value in data set [7] came out at 134 Arbitrary units. Further, the “Stability (Arbitrary units) Cath D 4 h” value in data set [8] came to 84 Arbitrary units. Also, the “Stability (Arbitrary units) Cath B 4 h” value in data set [9] amounted to 90 Arbitrary units. Further, the “Immunsupressive assays DR14-LN (Max) % Inhibition” value in data set [11] (maximal inhibition) worked out at 88%.

Source of the values: patent US7629318B2, “Immunosuppressant compounds, methods and uses related thereto” (priority 2002, dated 2009).
